# Counter-ions that a name gives are not always drawn.
# Experiments:
# [1] = system: Wistar rats; settings: general statement on standards; cited from earlier work
# [2] = system: male NIH Swiss mice; test: Marble burying assay (with rotorod); assay type: in vivo; settings: with rotorod performance
# Method: House experimentally-naïve male, NIH Swiss mice (Harlan Sprague-Dawley, Indianapolis, Ind.) weighing between 28-35 g in groups of 12 for at least three days prior to testing in a vivarium with 12 h light and dark cycles. Conduct experiments during the light cycle in a dimly lit experimental testing room. Dose mice with vehicle or test compound and, after a specified pretreatment interval (generally 30 min.), place each mouse individually on a rotorod (Ugo Basile 7650) operating at a speed of 6 revolutions/min. and observe for falling. After 2 min. on the rotorod, place the mice individually in a 17×28×12 cm high plastic tub with 5 mm sawdust shavings on the floor that are covered with 20 blue marbles (1.5 cm diameter) placed in the center. After 30 min., count the number of marbles buried (⅔ covered with sawdust). Assess the test compound's effect on marble burying with Dunnett's test and the effect on rotorod performance by Fisher's exact test.
# Clinically effective standard compounds suppress marble burying at doses that are devoid of motor-impairing effects as measured on the rotorod. The in vivo efficacy of 5HT2C compounds at the 5HT2C receptor is confirmed by the prevention of effects of the 5HT2C agonists on marble burying by co-administration of the 5HT2C receptor antagonist, 6-chloro-5-methyl-N-{2-[(2-methylpyridin-3-yl-oxy)pyridin-5-yl]aminocarbonyl}-2,3-dihydroindole.
# [3] = system: Wistar rats; test: Schedule-induced polydipsia; settings: rat, in vivo
# Method: Maintain Wistar rats on a food restricted diet (to maintain 85% free feeding weight), but with free access to water. Train the rats in a behavioral testing chamber to press a lever to receive a food pellet under a fixed interval schedule, such that the rats are rewarded with a 45 mg food pellet the first time they press a lever after a 120 second interval has elapsed. The fixed interval is then reset to 120 seconds and the process repeated. Thus, during a 90 min. test session, the rats can earn a maximum of 45 pellets. The behavioral chamber is also equipped with a water bottle that is weighed before and after the session to determine the amount of water consumed.
# Administer test compounds on Tuesdays and Fridays. Determine control day performances on Thursdays. Administer compounds either orally at 60 min. before the beginning of a test session, or subcutaneously at 20 min. before the beginning of a test session. Compare the rates of lever pressing and water consumption for each animal's performance during sessions after test compound treatment with that animal's performance during control sessions, expressed as a percent of the control rate. Average the individual percent of control rates for each dose and calculate the standard error of the mean. […]
# [4] = system: male NIH Swiss mice; test: Nestlet shredding; assay type: in vivo; settings: with motor effects (rotorod test)
# Source text: Mice naturally will construct nests of material available in their living environment. Since this behavior is obsessive in nature, it has been used to model OCD (Xia Li, Denise Morrow and Jeffrey M. Witkin, “Decreases in nestlet shredding of mice by serotonin uptake inhibitors: comparison with marble burying”, Psychopharmacology, submitted Jul. 14, 2003). House experimentally-naïve male, NIH Swiss mice (Harlan Sprague-Dawley, Indianapolis, Ind.) weighing between 28-35 g in groups of 12 for at least three days prior to testing in a vivarium with a 12 h light/dark cycle. Conduct experiments during the light cycle in an experimental room with normal overhead fluorescent lighting. Dose mice with vehicle or test compound and after a specified pretreatment interval (generally 30 min.), place the mice individually in a 17×28×12 cm high plastic tub with about 5 mm sawdust shavings on the floor along with a pre-weighed multi-ply gauze pad (51 mm square). After 30 min., weigh the remainder of the gauze pad not removed by the mouse. Determine the weight of the gauze used for nestlet construction by subtraction. Compare the results for test compound treated mice to the results for vehicle control treated mice with Dunnett's test.
# Clinically effective OCD treatment standard compounds suppress nestlet shredding at doses that are devoid of motor-impairing effects as measured by the rotorod test. […]
smiles,measurement,setting,value
CN(C)CCCN1c2ccccc2CCc2ccc(Cl)cc21 [chlomipramine],"schedule-induced polydipsia, clinically effective OCD treatment standard compounds",[1],"suppress schedule-induced polydipsia without producing notable changes in motor patterns, food intake, or behavior the following day"
Clc1ccc2c(c1CSc1ncc[nH]1)CCNCC2 (as salt: phosphate) (hydrate or solvate),melting point,,243 to 245 °C
CN(C)CCCN1c2ccccc2Sc2ccc(Cl)cc21 [chlorpromazine],marble burying behavior,[2],decrease marble burying only at doses that also disrupt rotorod performance
C[C@H](N)Cc1ccccc1 [d-amphetamine],Effect of 5-HT2C antagonist co-administration on suppression of polydipsia,[3],not prevented by the 5HT2C receptor antagonist
same,schedule-induced polydipsia (excessive drinking),[3],decreases excessive drinking only at behaviorally stimulating doses
same,nestlet shredding,[4],decreases nestlet shredding only at doses that produce motoric side effects
CNCCC(Oc1ccc(C(F)(F)F)cc1)c1ccccc1 (stereo not shown) [fluoxetine],"schedule-induced polydipsia, clinically effective OCD treatment standard compounds",[1],"suppress schedule-induced polydipsia without producing notable changes in motor patterns, food intake, or behavior the following day"
